These results are taken from patent US20050214938A1, “Cardiac bodies: clusters of spontaneously contracting cells for regenerating cardiac function” (priority 2004, published 2005).

Data set [1] relates to hES cells of the H7 line. As to the kind of experiment: Direct differentiation paradigm without embryoid body stage. It is filed as cell-based, human. The note with it: 10 μM at day 10-12 or 12-14. On the procedure:
Cardiomyocyte differentiation was also achieved in a direct differentiation paradigm. Undifferentiated hES cells of the H7 line were dissociated and plated directly onto gelatin-coated plates without going through an embryoid body stage. The plated cells were cultured in differentiation medium (80% KO-DMEM, 1 mM L-glutamine, 0.1 mM p-mercaptoethanol, 1% amino acids, and 20% fetal bovine serum). Contracting cardiomyocytes were found at day 18 in cultures treated with 10 μM 5-aza-deoxy-cytidine at day 10-12 or 12-14, and at later times in all cultures.

The test system of data set [2] is hES cells of the H1 or H9 line. On the procedure: hES cells of the H1 or H9 line being cultured as embryoid bodies were treated at differentiation day 1-4,4-6 or 6-8 with 5-aza-deoxy-cytidine, a cytosine analog that affects DNA methylation, thereby activating gene expression. Cells were harvested at day 15, and analyzed for cardiac α-MHC by real-time RT-PCR.
The RT-PCR assay from Example 3 was adapted for the Taqman™ 7700 sequence detection system using the same primers, amplifying for 40 cycles at 95° C. for 15 sec and 60° C. for 1 min. 18S ribosomal RNA was amplified for a control using a kit for Taqman™ ribosomal RNA control reagents (Applied Biosystems). Reactions were analyzed by ABI Prism™ 7700 Sequence Detection system.
Other reagents examined for an ability to induce cardiomyocyte differentiation included dimethyl sulfoxide (DMSO) and all-trans retinoic acid (RA).
Retinoic acid was applied to differentiating hES cultures at doses between 10^−9 and 10^−[…].

In data set [3] the test system is cardiomyogenic cell line from bone marrow stroma. The note with it: treated for 24 hours; cited from earlier work.
The test system of data set [4] is mouse ES cells. Conditions: Wobus et al. 1997; cited from earlier work.
The subject of data set [5] is hES-derived cardiomyocytes. The data set is described as follows: Pharmacological response: contraction rate of beating areas. It counts as cell-based, human. The note with it: for chronotropic effect: FIG. 5 Panels B-E. Here is the method:
EBs were plated on to gelatin-coated 24-well plates and allowed to differentiate, as in Example 2. Contracting cardiomyocytes at differentiation day 15-21 were used for examining pharmacological response. The frequency of the spontaneous beating was measured by counting the contraction rate of the beating areas maintained in the differentiation medium in a 37° C. heating chamber of an inverted microscope. The cells were then incubated with test compounds in the incubator for 20-30 min, and observed for contraction rate. Dose-dependent effects were determined by cumulatively applying of increasing concentrations of each substrate. Data represent the mean pulsation rate±standard error of the mean measured on 10-20 beating areas.
Differentiated cells were incubated with various concentrations of the drug and the number of beats per minute was counted. The cells were then washed with medium, maintained in differentiation medium for 24 h and observed for the time taken to recover contractility.

Molecules are shown by their SMILES.

For `Nc1ncn([C@H]2C[C@H](O)[C@@H](CO)O2)c(=O)n1` [5-aza-deoxy-cytidine], the “day at which contracting cardiomyocytes were found” value in data set [1] worked out at 18 days. The “expression of cardiac α-MHC” value in data set [2] (1 to 10 μM at day 6-8, harvested day 15) is reported as “significantly increased”.
In the case of `Nc1ncn([C@@H]2O[C@H](CO)[C@@H](O)[C@H]2O)c(=O)n1` [5-azacytidine], the “cells forming myotube-like structures, acquiring cardiomyocyte markers and beginning to beat” value in data set [3] was 30%.
As for `C[S+](C)[O-]` [DMSO, dimethyl sulfoxide], the “toxicity to the cells” value in data set [2] was “toxic”. Also, the “beating areas compared with non-treated cultures” value in data set [2] (0.5%, days 0-4) was “fewer beating areas”. Also, the beating cells result in data set [2] (0.8% or 1%) is given as “absent”. For the same molecule, in data set [2] (DMSO treatment), the “α-MHC expression compared with untreated cultures” value was “significant reduction”.
Turning to `CC1=C(/C=C/C(C)=C/C=C/C(C)=C/C(=O)O)C(C)(C)CCC1` [RA, all-trans retinoic acid], the “effect on cardiac differentiation” value in data set [4] was “accelerates ES cell-derived cardiac differentiation”. Besides, the “beating cells compared with untreated cultures” value in data set [2] (days 4-8, 8-15, or 4-15, doses between 10^−9 and 10^−5 μM) is reported as “no increase”.
For `CC(C)(C)NCC(O)c1cc(Cl)c(N)c(Cl)c1` (centres unmarked) [clenbuterol], the “beating rate after treatment” value in data set [5] (cells taken at Day 72, 1-10 nM, from about 72 beats/min, p<0.005) is on record as “about 98 beats/min”.
Turning to `COc1ccc([C@@H]2Sc3ccccc3N(CCN(C)C)C(=O)[C@@H]2OC(C)=O)cc1` [diltiazem], the “beating areas that stopped contraction” value in data set [5] (10^−5 M) was 100%. Further, in data set [5] (differentiation day 15-21, 20-30 min incubation, increasing concentrations), the “inhibition of beating rate” value is recorded as “concentration-dependent manner”.
On to `CC(C)NCC(O)c1ccc(O)c(O)c1` (centres unmarked) [isoprenaline], for which the chronotropic effect result in data set [5] is listed as “positive chronotropic effects”.
The same measure, in the same setting: the same measure for `CNC[C@H](O)c1cccc(O)c1` [phenylephrine]: “positive chronotropic effects”.
